The supplement of paper PMC12463676, “Small-molecule dissolution of stress granules by redox modulation benefits ALS models” (Nature Chemical Biology, 2025)

Each target was assayed with O=[As]([O-])(O)O.[K+] [potassium arsenate] (assay: thermal stability z-score vs DMSO; higher = more thermally stabilized by treatment). Settings: HeLa; arsenate concentration 1 mM.
Description: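 Cellular thermal proteome profiling in HeLa cells treated with 1 mM arsenate for 1 h (DMSO pretreatment), heated to ten temperatures (37-66.3 °C). Soluble protein was quantified by TMT mass spectrometry relative to DMSO controls; the thermal stability score was transformed to a z-score; mean of n = 3 experiments.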
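Further: each temperature applied for 3 min, abundance score taken as mean log2 fold change at the two lowest temperatures, z-score obtained by mean subtraction and division by SD.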

UniProt O43924, sequence (O43924 whole entry): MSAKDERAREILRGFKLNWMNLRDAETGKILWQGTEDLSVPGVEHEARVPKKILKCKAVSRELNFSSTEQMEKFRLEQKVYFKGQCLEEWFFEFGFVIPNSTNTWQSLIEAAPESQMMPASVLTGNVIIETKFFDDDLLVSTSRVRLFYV
UniProt Q96AY4, sequence (Q96AY4 whole entry): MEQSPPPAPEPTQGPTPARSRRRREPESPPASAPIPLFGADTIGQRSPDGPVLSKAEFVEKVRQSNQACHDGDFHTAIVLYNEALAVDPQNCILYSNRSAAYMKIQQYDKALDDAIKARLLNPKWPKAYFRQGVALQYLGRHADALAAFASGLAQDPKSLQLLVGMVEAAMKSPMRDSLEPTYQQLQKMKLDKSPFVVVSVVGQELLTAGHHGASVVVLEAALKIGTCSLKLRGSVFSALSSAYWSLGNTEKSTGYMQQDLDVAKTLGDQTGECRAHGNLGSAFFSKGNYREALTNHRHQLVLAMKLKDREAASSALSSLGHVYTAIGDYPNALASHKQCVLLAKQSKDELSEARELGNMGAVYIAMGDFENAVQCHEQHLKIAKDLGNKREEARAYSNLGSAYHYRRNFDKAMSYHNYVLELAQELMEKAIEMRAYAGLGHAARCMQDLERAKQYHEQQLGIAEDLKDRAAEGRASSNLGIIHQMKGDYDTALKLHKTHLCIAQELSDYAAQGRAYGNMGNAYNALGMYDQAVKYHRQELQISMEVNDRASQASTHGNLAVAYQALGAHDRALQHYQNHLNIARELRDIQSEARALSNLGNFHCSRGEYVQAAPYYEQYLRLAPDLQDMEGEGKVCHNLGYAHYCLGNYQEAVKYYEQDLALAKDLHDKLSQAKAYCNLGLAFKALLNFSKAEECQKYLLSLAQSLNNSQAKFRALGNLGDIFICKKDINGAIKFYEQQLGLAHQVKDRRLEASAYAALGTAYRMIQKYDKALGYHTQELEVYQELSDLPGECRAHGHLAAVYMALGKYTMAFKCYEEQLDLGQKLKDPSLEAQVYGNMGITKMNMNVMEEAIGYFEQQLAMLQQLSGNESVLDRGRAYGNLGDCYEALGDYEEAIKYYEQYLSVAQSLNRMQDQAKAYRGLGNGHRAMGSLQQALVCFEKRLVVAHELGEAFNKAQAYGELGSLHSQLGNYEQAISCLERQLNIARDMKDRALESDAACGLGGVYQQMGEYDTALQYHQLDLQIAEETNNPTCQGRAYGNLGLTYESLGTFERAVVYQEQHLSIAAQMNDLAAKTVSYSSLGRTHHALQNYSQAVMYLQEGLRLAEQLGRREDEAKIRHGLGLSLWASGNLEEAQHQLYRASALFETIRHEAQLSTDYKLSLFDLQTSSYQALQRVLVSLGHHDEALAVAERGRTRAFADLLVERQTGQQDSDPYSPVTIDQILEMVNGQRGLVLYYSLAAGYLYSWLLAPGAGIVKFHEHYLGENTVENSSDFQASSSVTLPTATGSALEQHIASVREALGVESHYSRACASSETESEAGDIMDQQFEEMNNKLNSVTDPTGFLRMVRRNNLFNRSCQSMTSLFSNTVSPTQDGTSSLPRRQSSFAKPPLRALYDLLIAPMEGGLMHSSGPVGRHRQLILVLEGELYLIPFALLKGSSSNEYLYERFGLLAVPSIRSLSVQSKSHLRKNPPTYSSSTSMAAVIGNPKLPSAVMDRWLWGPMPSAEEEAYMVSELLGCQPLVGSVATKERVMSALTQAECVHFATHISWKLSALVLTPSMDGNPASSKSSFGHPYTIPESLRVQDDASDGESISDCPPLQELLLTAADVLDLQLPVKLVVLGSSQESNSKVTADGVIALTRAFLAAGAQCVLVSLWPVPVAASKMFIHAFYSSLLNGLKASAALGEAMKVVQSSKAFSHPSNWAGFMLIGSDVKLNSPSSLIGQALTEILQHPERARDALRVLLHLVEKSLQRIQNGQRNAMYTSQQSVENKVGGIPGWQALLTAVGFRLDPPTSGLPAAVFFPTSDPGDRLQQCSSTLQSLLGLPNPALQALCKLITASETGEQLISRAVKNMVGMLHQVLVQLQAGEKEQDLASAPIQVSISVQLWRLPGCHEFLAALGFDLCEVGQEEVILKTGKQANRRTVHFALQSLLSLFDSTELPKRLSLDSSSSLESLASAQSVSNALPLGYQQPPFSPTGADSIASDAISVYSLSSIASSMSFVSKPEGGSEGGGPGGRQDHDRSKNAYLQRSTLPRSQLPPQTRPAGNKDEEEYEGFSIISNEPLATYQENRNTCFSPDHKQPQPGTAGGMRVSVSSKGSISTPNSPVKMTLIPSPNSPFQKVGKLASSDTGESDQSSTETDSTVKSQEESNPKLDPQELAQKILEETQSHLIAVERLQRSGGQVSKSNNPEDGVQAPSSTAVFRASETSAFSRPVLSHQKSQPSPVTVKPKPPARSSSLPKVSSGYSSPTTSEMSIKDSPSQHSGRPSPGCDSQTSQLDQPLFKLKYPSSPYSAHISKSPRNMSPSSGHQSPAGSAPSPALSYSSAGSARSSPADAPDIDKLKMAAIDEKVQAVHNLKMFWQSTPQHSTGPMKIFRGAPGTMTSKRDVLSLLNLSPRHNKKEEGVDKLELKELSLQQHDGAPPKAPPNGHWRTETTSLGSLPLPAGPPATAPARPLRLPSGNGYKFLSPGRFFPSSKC
UniProt Q9GZT4, sequence (Q9GZT4 whole entry): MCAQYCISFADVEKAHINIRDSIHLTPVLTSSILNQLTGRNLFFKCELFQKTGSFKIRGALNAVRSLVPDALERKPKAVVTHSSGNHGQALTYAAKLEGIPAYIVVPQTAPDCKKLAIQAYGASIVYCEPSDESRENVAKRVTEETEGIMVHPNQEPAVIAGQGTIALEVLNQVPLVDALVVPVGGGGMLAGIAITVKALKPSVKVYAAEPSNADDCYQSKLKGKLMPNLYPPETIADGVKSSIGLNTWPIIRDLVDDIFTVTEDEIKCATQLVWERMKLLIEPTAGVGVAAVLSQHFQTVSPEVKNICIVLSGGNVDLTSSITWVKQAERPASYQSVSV
UniProt P28838, sequence (P28838 whole entry): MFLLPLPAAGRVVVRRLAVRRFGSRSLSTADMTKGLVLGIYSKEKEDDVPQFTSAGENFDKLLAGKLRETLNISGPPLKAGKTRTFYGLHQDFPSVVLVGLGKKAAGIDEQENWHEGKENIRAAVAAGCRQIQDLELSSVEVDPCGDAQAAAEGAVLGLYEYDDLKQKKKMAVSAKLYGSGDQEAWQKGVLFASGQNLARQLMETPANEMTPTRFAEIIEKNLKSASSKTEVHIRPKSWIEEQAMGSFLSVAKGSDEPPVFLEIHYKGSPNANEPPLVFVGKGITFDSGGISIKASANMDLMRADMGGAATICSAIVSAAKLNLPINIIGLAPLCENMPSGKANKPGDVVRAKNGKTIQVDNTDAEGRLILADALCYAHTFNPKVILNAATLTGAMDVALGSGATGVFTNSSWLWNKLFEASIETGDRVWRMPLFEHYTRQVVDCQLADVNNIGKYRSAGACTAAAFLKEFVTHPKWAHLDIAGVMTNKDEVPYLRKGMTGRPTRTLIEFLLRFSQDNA
UniProt P30291, sequence (P30291 whole entry, looked up): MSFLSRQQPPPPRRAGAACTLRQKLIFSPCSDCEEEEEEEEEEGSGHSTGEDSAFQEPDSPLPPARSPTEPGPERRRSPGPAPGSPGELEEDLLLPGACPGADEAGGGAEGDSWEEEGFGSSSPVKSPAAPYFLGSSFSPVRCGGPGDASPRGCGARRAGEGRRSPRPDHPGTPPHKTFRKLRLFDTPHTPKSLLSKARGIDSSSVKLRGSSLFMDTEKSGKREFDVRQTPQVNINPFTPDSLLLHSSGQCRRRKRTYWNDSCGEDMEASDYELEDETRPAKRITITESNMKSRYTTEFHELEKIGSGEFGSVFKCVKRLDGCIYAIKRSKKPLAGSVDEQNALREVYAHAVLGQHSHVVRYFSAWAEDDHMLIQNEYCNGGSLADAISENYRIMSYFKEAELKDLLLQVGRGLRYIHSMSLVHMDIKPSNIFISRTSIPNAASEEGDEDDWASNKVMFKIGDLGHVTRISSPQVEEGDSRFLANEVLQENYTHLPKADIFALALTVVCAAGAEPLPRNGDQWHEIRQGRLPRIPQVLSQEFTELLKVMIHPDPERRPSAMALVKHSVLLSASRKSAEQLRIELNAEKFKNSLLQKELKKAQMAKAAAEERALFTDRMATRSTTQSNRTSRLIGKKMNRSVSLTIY
UniProt Q9Y2L9, sequence (Q9Y2L9 whole entry): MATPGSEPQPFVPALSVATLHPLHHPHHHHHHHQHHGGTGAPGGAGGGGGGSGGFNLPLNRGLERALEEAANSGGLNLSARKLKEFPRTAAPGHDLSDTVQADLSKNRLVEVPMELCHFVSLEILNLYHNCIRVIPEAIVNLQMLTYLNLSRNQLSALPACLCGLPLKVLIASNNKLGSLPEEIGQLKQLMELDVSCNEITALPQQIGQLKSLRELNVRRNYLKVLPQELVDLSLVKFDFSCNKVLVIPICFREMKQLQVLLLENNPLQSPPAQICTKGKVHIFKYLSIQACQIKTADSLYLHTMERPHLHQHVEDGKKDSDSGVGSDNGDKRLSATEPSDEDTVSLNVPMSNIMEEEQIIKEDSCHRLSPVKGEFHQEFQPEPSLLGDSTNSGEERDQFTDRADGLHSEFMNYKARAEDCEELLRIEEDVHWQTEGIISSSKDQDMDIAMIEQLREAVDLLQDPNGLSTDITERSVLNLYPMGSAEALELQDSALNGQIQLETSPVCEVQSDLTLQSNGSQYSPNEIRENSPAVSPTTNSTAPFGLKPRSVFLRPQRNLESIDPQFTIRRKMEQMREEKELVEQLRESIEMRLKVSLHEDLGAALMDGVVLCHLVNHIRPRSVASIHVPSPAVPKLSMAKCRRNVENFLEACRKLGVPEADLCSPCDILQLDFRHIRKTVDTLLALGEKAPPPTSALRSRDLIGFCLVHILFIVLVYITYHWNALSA
UniProt P63146, sequence (P63146 whole entry): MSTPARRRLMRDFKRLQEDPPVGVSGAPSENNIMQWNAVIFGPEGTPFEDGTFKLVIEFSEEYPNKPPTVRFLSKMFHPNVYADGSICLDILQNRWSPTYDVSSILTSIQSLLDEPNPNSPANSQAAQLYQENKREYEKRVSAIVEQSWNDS

In order of falling thermal stability z-score:
1. GABPB1 (UniProt Q06547)  5.01
2. LSG1 (UniProt Q9H089)  3.55
3. IFRD2 (UniProt Q12894)  3.33
4. VDAC2 (UniProt P45880)  1.58
5. LAP3 (UniProt P28838)  1.29
6. LRRC16A (UniProt Q5VZK9)  1.26
7. SAMM50 (UniProt Q9Y512)  1.08
8. GPR108 (UniProt Q9NPR9)  0.967
9. PDE6D (UniProt O43924)  0.912
10. ARHGAP17 (UniProt Q68EM7)  0.874
11. CD47 (UniProt Q08722)  0.869
12. TNPO2 (UniProt O14787)  0.809
13. FXR2 (UniProt P51116)  0.783
14. EPHA5 (UniProt P54756)  0.746
15. GOLGA2 (UniProt Q08379)  0.679
16. FKBP9 (UniProt O95302)  0.508
17. LRCH1 (UniProt Q9Y2L9)  0.494
18. GTPBP1 (UniProt O00178)  0.493
19. PRKCA (UniProt P17252)  0.458
20. GBF1 (UniProt Q92538)  0.452
21. GNG12 (UniProt Q9UBI6)  0.329
22. STK11IP (UniProt Q8N1F8)  0.324
23. GGH (UniProt Q92820)  0.317
24. TOM1 (UniProt O60784)  0.244
25. EPHX1 (UniProt P07099)  0.24
26. RAP1GAP (UniProt P47736)  0.233
27. DEGS1 (UniProt O15121)  0.212
28. ZCRB1 (UniProt Q8TBF4)  0.155
29. DIEXF (UniProt Q68CQ4)  0.134
30. PPIP5K1 (UniProt Q6PFW1)  0.125
31. CCT5 (UniProt P48643)  0.118
32. YTHDF2 (UniProt Q9Y5A9)  0.0979
33. ZFYVE27 (UniProt Q5T4F4)  0.0943
34. BTF3 (UniProt P20290)  0.076
35. QSER1 (UniProt Q2KHR3)  0.0737
36. MPDZ (UniProt O75970)  0.0169
37. RPS6KA4 (UniProt O75676)  0.0157
38. WEE1 (UniProt P30291)  0.00265
39. TTC28 (UniProt Q96AY4)  -0.0135
40. PMS2 (UniProt P54278)  -0.0209
41. RPRD1A (UniProt Q96P16)  -0.037
42. TTC37 (UniProt Q6PGP7)  -0.0411
43. RABEPK (UniProt Q7Z6M1)  -0.0506
44. TSG101 (UniProt Q99816)  -0.0661
45. MRPL37 (UniProt Q9BZE1)  -0.0807
46. ECE2 (UniProt P0DPD6)  -0.104
47. WDR33 (UniProt Q9C0J8)  -0.105
48. CHD1L (UniProt Q86WJ1)  -0.109
49. WWC2 (UniProt Q6AWC2)  -0.129
50. UBE2B (UniProt P63146)  -0.132
51. DDX49 (UniProt Q9Y6V7)  -0.153
52. UPP1 (UniProt Q16831)  -0.16
53. VAPB (UniProt O95292)  -0.178
54. CDIPT (UniProt O14735)  -0.187
55. NAPRT (UniProt Q6XQN6)  -0.197
56. BAG5 (UniProt Q9UL15)  -0.198
57. ELP3 (UniProt Q9H9T3)  -0.259
58. ADPRHL2 (UniProt Q9NX46)  -0.268
59. ANKRD27 (UniProt Q96NW4)  -0.276
60. SBF1 (UniProt O95248)  -0.338
61. CBL (UniProt P22681)  -0.368
62. SRR (UniProt Q9GZT4)  -0.393
63. SCLY (UniProt Q96I15)  -0.415
64. UBE2L3 (UniProt P68036)  -0.555
65. HDAC1 (UniProt Q13547)  -0.601
66. SLC6A6 (UniProt P31641)  -0.649
67. PRPF19 (UniProt Q9UMS4)  -0.692
68. PSMD11 (UniProt O00231)  -0.694
69. C9ORF142 (UniProt Q9BUH6)  -0.706
70. RPS3A (UniProt P61247)  -0.818
71. AKT1 (UniProt P31749)  -1.01
72. SDHAF4 (UniProt Q5VUM1)  -1.53

Each target was assayed with NC(=O)CCCCC1CCSS1 [lipoamide] in the same assay as above. Settings: HeLa; lipoamide concentration 100 µM; arsenate co-treatment: 1 mM arsenate 1 h.
Description: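 Cellular thermal proteome profiling in HeLa cells. Cells were treated with 100 µM lipoamide for 1 h, with or without 1 mM arsenate for a further 1 h, then heated to ten temperatures (37-66.3 °C), and soluble protein was quantified by TMT mass spectrometry relative to 0.1% DMSO controls. The thermal stability score (sum of log2 fold changes minus the abundance score) was transformed to a z-score; mean of n = 3 experiments.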

In order of rising thermal stability z-score:
1. STK11IP (UniProt Q8N1F8)  -0.747
2. C9ORF142 (UniProt Q9BUH6)  -0.55
3. RAP1GAP (UniProt P47736)  -0.459
4. GOLGA2 (UniProt Q08379)  -0.426
5. DDX49 (UniProt Q9Y6V7)  -0.368
6. RPS6KA4 (UniProt O75676)  -0.327
7. GTPBP1 (UniProt O00178)  -0.325
8. SBF1 (UniProt O95248)  -0.316
9. MPDZ (UniProt O75970)  -0.25
10. PMS2 (UniProt P54278)  -0.198
11. WEE1 (UniProt P30291)  -0.142
12. SRR (UniProt Q9GZT4)  -0.139
13. RPRD1A (UniProt Q96P16)  -0.123
14. TTC28 (UniProt Q96AY4)  -0.0855
15. PPIP5K1 (UniProt Q6PFW1)  -0.0717
16. VAPB (UniProt O95292)  -0.055
17. YTHDF2 (UniProt Q9Y5A9)  -0.0393
18. CCT5 (UniProt P48643)  -0.0313
19. ANKRD27 (UniProt Q96NW4)  -0.025
20. WWC2 (UniProt Q6AWC2)  -0.0127
21. LRCH1 (UniProt Q9Y2L9)  0.0183
22. DIEXF (UniProt Q68CQ4)  0.1
23. SCLY (UniProt Q96I15)  0.111
24. BAG5 (UniProt Q9UL15)  0.228
25. RPS3A (UniProt P61247)  0.23
26. TOM1 (UniProt O60784)  0.231
27. VDAC2 (UniProt P45880)  0.262
28. TSG101 (UniProt Q99816)  0.29
29. PRKCA (UniProt P17252)  0.358
30. LAP3 (UniProt P28838)  0.405
31. UBE2B (UniProt P63146)  0.48
32. RABEPK (UniProt Q7Z6M1)  0.68
33. PDE6D (UniProt O43924)  0.899
34. PRPF19 (UniProt Q9UMS4)  1.23
35. EPHX1 (UniProt P07099)  3.16
